IC50 data for 31 compounds are collected here from patent US10053454B2 (Bristol-Myers Squibb Company, priority 2013, dated 2018).

SMILES strings stand for the structures. Bounds are passed on as bounds.

In the assay the target is BRD4 (Homo sapiens, UniProt O60885). In words: Time Resolved Fluorescence Resonance Energy Transfer (TR-FRET) binding assay. Particulars: one of the FRET assays described (BRD4 construct not given).
By IC50 is commonly meant the concentration needed to halve the response being measured. The low end stands for higher potency, the high end for lower potency. In the case of `Cc1noc(C)c1-c1cc(C(N)=O)c2c(c1)c1ccc(N3CCOC3=O)cc1n2CC1CC1` [Example 45, 9-(cyclopropylmethyl)-3-(3,5-dimethyl-4-isoxazolyl)-7-(2-oxo-1,3-oxazolidin-3-yl)-9H-carbazole-1-carboxamide], the IC50 is < 500 nM.

For `Cc1noc(C)c1-c1cc(-c2nc[nH]n2)c2c(c1)c1ccc(C(=O)N3CCOCC3)cc1n2CC1CC1` [Example 70, 9-(cyclopropylmethyl)-3-(3,5-dimethyl-4-isoxazolyl)-7-(4-morpholinylcarbonyl)-1-(1H-1,2,4-triazol-3-yl)-9H-carbazole], the IC50 is < 5000 nM.

Consider `Cc1noc(C)c1-c1cc(C(N)=O)c2c(c1)c1ccc(C(=O)N3C[C@@H](C)O[C@@H](C)C3)cc1n2S(=O)(=O)C1CC1` [Example 88, 9-(cyclopropylsulfonyl)-3-(3,5-dimethyl-4-isoxazolyl)-7-((cis-2,6-dimethyl-4-morpholinyl)carbonyl)-9H-carbazole-1-carboxamide], for which the IC50 was < 50 nM.

On to `Cc1noc(C)c1-c1cc(C(N)=O)c2c(c1)c1ccc(O)cc1n2CC1CC1` [Example 48, 9-(cyclopropylmethyl)-3-(3,5-dimethyl-4-isoxazolyl)-7-hydroxy-9H-carbazole-1-carboxamide], for which the half-maximal inhibitory concentration (IC50) was < 500 nM.

Regarding `Cc1noc(C)c1-c1cc(C(N)=O)c2c(c1)c1ccc(N3CCCCC3=O)cc1n2CC1CC1` [Example 42, 9-(cyclopropylmethyl)-3-(3,5-dimethyl-4-isoxazolyl)-7-(2-oxo-1-piperidinyl)-9H-carbazole-1-carboxamide], the IC50 is < 500 nM.

As for `Cc1n[nH]c(C)c1-c1cc(C(N)=O)c2c(c1)c1ccc(C(=O)N3C[C@@H](C)O[C@@H](C)C3)cc1n2CC1CC1` [Example 83, 9-(cyclopropylmethyl)-7-((cis-2,6-dimethyl-4-morpholinyl)carbonyl)-3-(3,5-dimethyl-1H-pyrazol-4-yl)-9H-carbazole-1-carboxamide], the IC50 is < 500 nM.

As to `Cc1noc(C)c1-c1cc(C(N)=O)c2c(c1)c1ccc(NCC3CCCC3)cc1n2CC1CC1` [Example 39, 7-(cyclopentylmethylamino)-9-(cyclopropylmethyl)-3-(3,5-dimethyl-4-isoxazolyl)-9H-carbazole-1-carboxamide], the IC50 is < 500 nM.

Take `CNc1ccc2c3cc(-c4c(C)noc4C)cc(C(N)=O)c3n(CC3CC3)c2c1` [Example 37, 9-(cyclopropylmethyl)-3-(3,5-dimethyl-4-isoxazolyl)-7-(methylamino)-9H-carbazole-1-carboxamide]: the IC50 is < 500 nM.

As to `Cc1noc(C)c1-c1cc(C(N)=O)c2c(c1)c1ccc(C(=O)N3CC(F)(F)C3)cc1n2S(=O)(=O)C1CC1` [Example 24, 9-(cyclopropylsulfonyl)-7-((3,3-difluoro-1-azetidinyl)carbonyl)-3-(3,5-dimethyl-4-isoxazolyl)-9H-carbazole-1-carboxamide], the IC50 was < 50 nM.

In the case of `Cc1noc(C)c1-c1cc(C(N)=O)c2c(c1)c1ccc(C(=O)N3CCC(F)(F)CC3)cc1n2S(=O)(=O)C1CC1` [Example 26, 9-(cyclopropylsulfonyl)-7-((4,4-difluoro-1-piperidinyl)carbonyl)-3-(3,5-dimethyl-4-isoxazolyl)-9H-carbazole-1-carboxamide], the IC50 was < 50 nM.

With `Cc1noc(C)c1-c1cc(C(N)=O)c2c(c1)c1c(C(=O)N3C[C@@H](C)O[C@@H](C)C3)cc(C(F)(F)F)cc1n2S(=O)(=O)C1CC1` [Example 74, 9-(cyclopropylsulfonyl)-3-(3,5-dimethyl-4-isoxazolyl)-5-((cis-2,6-dimethyl-4-morpholinyl)carbonyl)-7-(trifluoromethyl)-9H-carbazole-1-carboxamide], the IC50 is < 500 nM.

Consider `Cc1noc(C)c1-c1cc(C(N)=O)c2c(c1)c1c(C(=O)N3C[C@@H](C)O[C@@H](C)C3)cc(C(F)(F)F)cc1n2S(C)(=O)=O` [Example 73, 3-(3,5-dimethyl-4-isoxazolyl)-5-((cis-2,6-dimethyl-4-morpholinyl)carbonyl)-9-(methylsulfonyl)-7-(trifluoromethyl)-9H-carbazole-1-carboxamide], for which the IC50 was < 500 nM.

As for `Cc1noc(C)c1-c1cc(C(N)=O)c2c(c1)c1ccc(C(=O)N3CCCC(F)C3)cc1n2S(=O)(=O)C1CC1` (stereo not shown) [Example 23, 9-(cyclopropylsulfonyl)-3-(3,5-dimethyl-4-isoxazolyl)-7-((3-fluoro-1-piperidinyl)carbonyl)-9H-carbazole-1-carboxamide], the IC50 is < 50 nM.

For `Cc1noc(C)c1-c1cc(C(N)=O)c2c(c1)c1cc(S(C)(=O)=O)ccc1n2S(=O)(=O)C1CC1` [Example 77, 9-(cyclopropylsulfonyl)-3-(3,5-dimethyl-4-isoxazolyl)-6-(methylsulfonyl)-9H-carbazole-1-carboxamide], the IC50 was < 500 nM.

For the compound `CCOC(=O)Nc1ccc2c3cc(-c4c(C)noc4C)cc(C(N)=O)c3n(CC3CC3)c2c1` [Example 32, Ethyl(8-carbamoyl-9-(cyclopropylmethyl)-6-(3,5-dimethyl-4-isoxazolyl)-9H-carbazol-2-yl)carbamate], the IC50 was < 5000 nM.

On to `Cc1noc(C)c1-c1cc(C(N)=O)c2c(c1)c1cc(S(C)(=O)=O)ccc1n2CC1CC1` [Example 78, 9-(cyclopropylmethyl)-3-(3,5-dimethyl-4-isoxazolyl)-6-(methylsulfonyl)-9H-carbazole-1-carboxamide], for which the IC50 is < 50 nM.

As to `Cc1noc(C)c1-c1cc(C(N)=O)c2c(c1)c1ccc(C(=O)N3CC(F)C3)cc1n2S(=O)(=O)C1CC1` [Example 21, 9-(cyclopropylsulfonyl)-3-(3,5-dimethyl-4-isoxazolyl)-7-((3-fluoro-1-azetidinyl)carbonyl)-9H-carbazole-1-carboxamide], the IC50 is < 50 nM.

For `Cc1noc(C)c1-c1cc(C(N)=O)c2c(c1)c1ccc(N)cc1n2CC1CC1` [Example 28, 7-amino-9-(cyclopropylmethyl)-3-(3,5-dimethyl-4-isoxazolyl)-9H-carbazole-1-carboxamide], the IC50 was < 500 nM.

In the case of `Cc1noc(C)c1-c1cc(C(N)=O)c2c(c1)c1ccc(C(=O)N3CC(F)C3)cc1n2S(C)(=O)=O` [Example 7, 3-(3,5-dimethyl-4-isoxazolyl)-7-((3-fluoro-1-azetidinyl)carbonyl)-9-(methylsulfonyl)-9H-carbazole-1-carboxamide], the IC50 was < 50 nM.

Take `COC1CN(C(=O)c2ccc3c4cc(-c5c(C)noc5C)cc(C(N)=O)c4n(S(C)(=O)=O)c3c2)C1` [Example 14, 3-(3,5-dimethyl-4-isoxazolyl)-7-((3-methoxy-1-azetidinyl)carbonyl)-9-(methylsulfonyl)-9H-carbazole-1-carboxamide]: the IC50 is < 50 nM.

`Cc1noc(C)c1-c1cc(C(N)=O)c2[nH]c3cc(C(=O)N4CCCCC4)ccc3c2c1` [Example 1, 3-(3,5-dimethyl-4-isoxazolyl)-7-(1-piperidinylcarbonyl)-9H-carbazole-1-carboxamide]: the IC50 is < 500 nM.

Consider `CC(=O)N(C)c1ccc2c3cc(-c4c(C)noc4C)cc(C(N)=O)c3n(CC3CC3)c2c1` [Example 40, 7-(acetyl(methyl)amino)-9-(cyclopropylmethyl)-3-(3,5-dimethyl-4-isoxazolyl)-9H-carbazole-1-carboxamide], for which the IC50 was < 50 nM.

As for `Cc1noc(C)c1-c1cc(C(N)=O)c2c(c1)c1ccc(OC(=O)N3CCOCC3)cc1n2CC1CC1` [Example 50, 8-carbamoyl-9-(cyclopropylmethyl)-6-(3,5-dimethyl-4-isoxazolyl)-9H-carbazol-2-yl morpholine-4-carboxylate], the IC50 was < 500 nM.

On to `Cc1noc(C)c1-c1cc(C(N)=O)c2c(c1)c1ccc(C(=O)N3C(C)(C)CC(O)CC3(C)C)cc1n2S(C)(=O)=O` [Example 16, 3-(3,5-dimethyl-4-isoxazolyl)-7-((4-hydroxy-2,2,6,6-tetramethyl-1-piperidinyl)carbonyl)-9-(methylsulfonyl)-9H-carbazole-1-carboxamide], for which the IC50 was < 50 nM.

For `CC(=O)n1c2cc(C(=O)N3C[C@@H](C)O[C@@H](C)C3)ccc2c2cc(-c3c(C)noc3C)cc(C(N)=O)c21` [Example 60, 9-acetyl-3-(3,5-dimethyl-4-isoxazolyl)-7-(cis-2,6-dimethylmorpholine-4-carbonyl)-9H-carbazole-1-carboxamide], the IC50 is < 5000 nM.

As for `CCNC(=O)n1c2cc(C(=O)N3C[C@@H](C)O[C@@H](C)C3)ccc2c2cc(-c3c(C)noc3C)cc(C(N)=O)c21` [Example 61, 3-(3,5-dimethyl-4-isoxazolyl)-7-(cis-2,6-dimethylmorpholine-4-carbonyl)-N9-ethyl-9H-carbazole-1,9-dicarboxamide], the IC50 was < 5000 nM.

For the compound `Cc1cnc(-c2cc(-c3c(C)noc3C)cc3c2[nH]c2cc(C(=O)N4CCOCC4)ccc23)o1` [Example 62, 3-(3,5-dimethyl-4-isoxazolyl)-1-(5-methyl-1,3-oxazol-2-yl)-7-(4-morpholinylcarbonyl)-9H-carbazole], the IC50 was < 5000 nM.

For the compound `CC(=O)Nc1ccc2c3cc(-c4c(C)noc4C)cc(C(N)=O)c3n(CC3CC3)c2c1` [Example 29, 7-acetamido-9-(cyclopropylmethyl)-3-(3,5-dimethyl-4-isoxazolyl)-9H-carbazole-1-carboxamide], the IC50 is < 500 nM.

Turning to `Cc1noc(C)c1-c1cc(C(N)=S)c2c(c1)c1ccc(C(=O)N3CCOCC3)cc1n2CC1CC1` [Example 68, 9-(cyclopropylmethyl)-3-(3,5-dimethyl-4-isoxazolyl)-7-(4-morpholinylcarbonyl)-9H-carbazole-1-carbothioamide], the IC50 was < 5000 nM.

As to `Cc1noc(C)c1-c1cc(C(N)=O)c2c(c1)c1ccc(C=O)cc1n2CC1CC1` [Example 47, 9-(cyclopropylmethyl)-3-(3,5-dimethyl-4-isoxazolyl)-7-formyl-9H-carbazole-1-carboxamide], the IC50 is < 500 nM.

Regarding `Cc1noc(C)c1-c1cc(C(N)=O)c2c(c1)c1ccc(N3CCCOC3=O)cc1n2CC1CC1` [Example 43, 9-(cyclopropylmethyl)-3-(3,5-dimethyl-4-isoxazolyl)-7-(2-oxo-1,3-oxazinan-3-yl)-9H-carbazole-1-carboxamide], the IC50 is < 50 nM.
